Results published in US20250230138A1, “COMPOUNDS HAVING A T-STRUCTURE FORMED BY AT LEAST FOUR CYCLES FOR USE IN THE TREATMENT OF CANCER AND OTHER INDICATIONS” (TheRas, Inc., priority 2022, published 2025).
Read-outs that look alike come from different tables or passages of the source.

Key:
[1] = system: pAKT in BT474 cells; experiment: Cell-based pAKT HTRF assay in BT474 cells; conditions: BT474 cells, 4 hr incubation, read-out: pAKT inhibition IC50 in BT474 cells
How it was run: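 9-pt curve, top 3 μM, 3-fold steps, 0.25% DMSO; 4 hr compound exposure. Lysis, then HTRF with d2/Eu Cryptate antibody pair, 4–24 h RT. Ex 320 nm, Em 615 nm.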

[2] = molecular target: Cys242 in human PIK3CA (157-299) (Homo sapiens (Human), UniProt P42336); experiment: Covalent modification assay using MALDI-TOF MS; type: biochemical; conditions: 4 h reaction time point
How it was run: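 PIK3CA (157-299) at 3.33 μM or 1 μM in 20 mM HEPES, 150 mM NaCl, 2 mM MgCl2, pH 7.3 was incubated with compound (from 10 mM DMSO stocks) in the dark at room temperature for 15 min, 30 min, 2 h or 4 h. Linear-mode MALDI-TOF peak heights gave percent modification.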

[3] = Homo sapiens, BT-474, Compounds 10-999
[4] = 3.33 μM protein target, 1:7.5 protein to compound ratio (compounds 1-852)
[5] = 1 μM protein target, 1:5 protein to compound ratio (compounds 853-1279)

Chain of Cys242 in human PIK3CA (157-299) (P42336 157-299): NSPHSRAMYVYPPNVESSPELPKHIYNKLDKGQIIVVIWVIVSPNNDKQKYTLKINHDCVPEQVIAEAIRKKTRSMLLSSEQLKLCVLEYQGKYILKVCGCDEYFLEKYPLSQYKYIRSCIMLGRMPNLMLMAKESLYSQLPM

SMILES | IC50 [1, 3] | % of modification [2, 4] | IC50 ([1]; Compounds 10-999) | % of modification [2, 5] | IC50 ([1]; Compounds 1000-1279)
C=CC(=O)N1CCc2nc(-c3nc(-c4ccc5c(c4)CCNC5=O)c4ccsc4c3-c3ccc(F)cc3OCCOC)sc2C1 [Compound 118, 6-[7-[4-fluoro-2-(2-methoxyethoxy)phenyl]-6-(5-prop-2-enoyl-6,7-dihydro-4H-thiazolo[5,4-c]pyridin-2-yl)thieno[3,2-c]pyridin-4-yl]-3,4-dihydro-2H-isoquinolin-1-one] | < 100 nM | A (percent of modification of PIK3CA protein ≥75%) | – | – | –
C=CC(=O)N1CCn2nc(-c3nc(-c4ccc5cnncc5c4)c4ccsc4c3-c3c(F)cc(F)cc3OCCO)cc2C1C (stereo not drawn) [Compound 909] | – | – | < 100 nM | A (percent of modification of PIK3CA protein ≥75%) | –
C=CC(=O)N1CCc2ncc(-c3nc(-c4ccc5c(c4)CN(CCOC)CC5(F)F)c4ccsc4c3-c3c(F)cc(F)cc3OCCOC)cc2C1 [Compound 1278] | – | – | – | A (percent of modification of PIK3CA protein ≥75%) | < 100 nM
C=CC(=O)N1CCn2nc(-c3nc(-c4ccc5nn(C)cc5c4)c4ccsc4c3-c3c(F)cc(F)cc3OCCO)cc2[C@H]1C [Compound 650] | – | C (25%≤percent of modification <50%) | < 100 nM | – | –
C=CC(=O)N1CCn2nc(-c3nc(-c4ccc5c(cnn5C)c4)c4ccsc4c3-c3c(F)cc(F)cc3OC3CC(F)(F)C3)cc2C1C (stereo not drawn) [Compound 1240] | – | – | – | A (percent of modification of PIK3CA protein ≥75%) | < 100 nM
C=CC(=O)N1CCc2ncc(-c3nc(-c4ccc(=O)n(C)c4)c4ccsc4c3-c3c(F)cc(F)cc3OC(C)C)cc2C1 [Compound 330] | – | A (percent of modification of PIK3CA protein ≥75%) | < 100 nM | – | –
C=CC(=O)N1CCc2nc(-c3nc(-c4cnn(C)c4)c4ccsc4c3-c3c(F)cc(Cl)cc3OCCOC)sc2C1 [Compound 464] | – | A (percent of modification of PIK3CA protein ≥75%) | 100 to 1000 nM | – | –
C=CC(=O)N1CCn2nc(-c3nc(-c4ccc(CCN(C)C)cc4)c4ccsc4c3-c3c(F)cc(F)cc3OCCOC)cc2C1C (stereo not drawn) [Compound 1060] | – | – | – | A (percent of modification of PIK3CA protein ≥75%) | < 100 nM
C=CC(=O)N1Cc2cc(-c3nc(-c4ccc5c(cnn5C)c4)c4ccsc4c3-c3c(F)cc(F)cc3OC[C@@H](C)O)nn2[C@@H](C)C1 [Compound 608] | – | D (percent of modification <25%) | 100 to 1000 nM | – | –
C=CC(=O)N1CCn2nc(-c3nc(-c4ccc(=O)n(C)c4)cnc3-c3ccc(F)cc3OC(C)C)cc2C1 [Compound 273, 5-[5-(4-fluoro-2-isopropoxy-phenyl)-6-(5-prop-2-enoyl-6,7-dihydro-4H-pyrazolo[1,5-a]pyrazin-2-yl)pyrazin-2-yl]-1-methyl-pyridin-2-one] | > 3000 nM | C (25%≤percent of modification <50%) | – | – | –
C=CC(=O)N1CC(n2cc(-c3nc(-c4ccc5c(c4)CCNC5)c4ccsc4c3-c3ccc(F)cc3F)cn2)C1 [Compound 108] | – | A (percent of modification of PIK3CA protein ≥75%) | 100 to 1000 nM | – | –
C=CC(=O)N1CCc2nc(-c3nc(-c4ccc(C(C)(C)N)cc4)c4ccsc4c3-c3c(F)cc(F)cc3OCCOC)sc2C1 [Compound 443] | – | A (percent of modification of PIK3CA protein ≥75%) | 100 to 1000 nM | – | –
C=CC(=O)N1CCn2nc(-c3nc(-c4ccc(CN(C)C)cc4)c4ccsc4c3-c3c(F)cc(F)cc3OCCOC)cc2C1C (stereo not drawn) [Compound 991] | – | – | < 100 nM | A (percent of modification of PIK3CA protein ≥75%) | –
C=CC(=O)N1CCn2nc(-c3nc(-c4ccc5ncn(C)c(=O)c5c4)c4ccsc4c3-c3c(F)cc(F)cc3OCCOC)cc2C1C (stereo not drawn) [Compound 925] | – | – | < 100 nM | A (percent of modification of PIK3CA protein ≥75%) | –
C=CC(=O)N1Cc2cc(-c3nc(-c4ccc5ncn(C)c5c4)c4ccsc4c3-c3c(F)cc(F)cc3OCC(C)O)nn2CC1C (stereo not drawn) [Compound 765] | – | A (percent of modification of PIK3CA protein ≥75%) | < 100 nM | – | –
C=CC(=O)N1Cc2cc(-c3nc(-c4ccc5c(c4)CCNC5=O)c4ccsc4c3-c3c(F)cc(F)cc3OCCO)nn2CC1C (stereo not drawn) [Compound 907] | – | – | < 100 nM | A (percent of modification of PIK3CA protein ≥75%) | –
C=CC(=O)N1CCn2nc(-c3nc(-c4ccc5c(=O)n(C)ncc5c4)c4ccsc4c3-c3c(F)cc(F)cc3OCCO)cc2[C@H]1C [Compound 889] | – | – | < 100 nM | A (percent of modification of PIK3CA protein ≥75%) | –
C=CC(=O)N1CCc2nc(-c3nc(-c4cnn(CC(C)(C)O)c4)c4ccsc4c3-c3c(F)cc(F)cc3OC(C)C)sc2C1 [Compound 344] | – | A (percent of modification of PIK3CA protein ≥75%) | < 100 nM | – | –
C=CC(=O)N1CCn2nc(-c3nc(-c4cnc(OCCN(C)C)nc4)c4ccsc4c3-c3c(F)cc(F)cc3OCCOC)cc2C1C (stereo not drawn) [Compound 1056] | – | – | – | A (percent of modification of PIK3CA protein ≥75%) | < 100 nM
C=CC(=O)N1CC(n2cc(-c3nc(-c4cnn(CF)c4)c4ccsc4c3-c3ccc(F)cc3OCCOC)cn2)C1 [Compound 236] | – | A (percent of modification of PIK3CA protein ≥75%) | 100 to 1000 nM | – | –
C=CC(=O)N1Cc2cc(-c3nc(-c4cnc5cn(C)nc5c4)c4ccsc4c3-c3c(F)cc(F)cc3OCCOC)nn2C[C@H]1C [Compound 818] | – | A (percent of modification of PIK3CA protein ≥75%) | < 100 nM | – | –
C=CC(=O)N1CCc2nc(-c3nc(-c4ccc(C(C)(C)O)nc4)c4ccsc4c3-c3c(F)cc(F)cc3OCCOC)sc2C1 [Compound 445] | – | A (percent of modification of PIK3CA protein ≥75%) | 100 to 1000 nM | – | –
C=C(F)C(=O)N1CCn2nc(-c3nc(-c4ccc5c(c4)CNC5=O)c4ccsc4c3-c3ccc(Cl)cc3OC(C)C)cc2C1 [Compound 361] | – | A (percent of modification of PIK3CA protein ≥75%) | < 100 nM | – | –
C=CC(=O)N1Cc2cc(-c3nc(-c4ccc5nn(C)cc5c4)c4ccsc4c3-c3c(F)cc(F)cc3OCCOC)nn2C[C@H]1C [Compound 668, 1-((R)-2-((S)-7-(2,4-difluoro-6-(2-methoxyethoxy)phenyl)-4-(2-methyl-2H-indazol-5-yl)thieno[3,2-c]pyridin-6-yl)-6-methyl-6,7-dihydropyrazolo[1,5-a]pyrazin-5(4H)-yl)prop-2-en-1-one] | – | A (percent of modification of PIK3CA protein ≥75%) | < 100 nM | – | –
C=CC(=O)N1CCc2ncc(-c3nc(-c4cnn(C)c4)c(C(F)(F)F)cc3-c3ccc(F)cc3OC(C)C)cc2C1 [Compound 360, 1-[3-[3-(4-fluoro-2-isopropoxy-phenyl)-6-(1-methylpyrazol-4-yl)-5-(trifluoromethyl)-2-pyridyl]-7,8-dihydro-5H-1,6-naphthyridin-6-yl]prop-2-en-1-one] | > 3000 nM | B (50%<percent of modification <75%) | – | – | –
C=CC(=O)N1CCn2nc(-c3nc(-c4ccc5c(c4)CCN(C(C)C)C5)c4ccsc4c3-c3ccc(F)cc3OCCOC)nc2C1 [Compound 185, 1-[2-[7-[4-fluoro-2-(2-methoxyethoxy)phenyl]-4-(2-isopropyl-3,4-dihydro-1H-isoquinolin-6-yl)thieno[3,2-c]pyridin-6-yl]-6,8-dihydro-5H-[1,2,4]triazolo[1,5-a]pyrazin-7-yl]prop-2-en-1-one] | < 100 nM | A (percent of modification of PIK3CA protein ≥75%) | – | – | –
C=CC(=O)N1CCc2nc(-c3nc(-c4ccc5c(c4)CCNC5)c4ccsc4c3-c3ccc(F)cc3OCC3CC3)sc2C1 [Compound 161] | – | A (percent of modification of PIK3CA protein ≥75%) | < 100 nM | – | –
C=CC(=O)N1CCc2nc(-c3nc(-c4ccc5c(c4)CNCCC5)c4ccsc4c3-c3ccc(F)cc3OCCOC)sc2C1 [Compound 168] | – | A (percent of modification of PIK3CA protein ≥75%) | < 100 nM | – | –
C=CC(=O)N1CCn2nc(-c3nc(-c4ccc5c(cnn5C)c4)c4ccsc4c3-c3c(F)cc(F)cc3OCCO)cc2[C@@H]1C [Compound 1166] | – | – | – | D (percent of modification <25%) | 100 to 1000 nM
C=CC(=O)N1CCn2nc(-c3nc(-c4cnn(C)c4)ccc3-c3ccc(F)cc3OC(C)C)cc2C1 [Compound 279, 1-[2-[3-(4-fluoro-2-isopropoxy-phenyl)-6-(1-methylpyrazol-4-yl)-2-pyridyl]-6,7-dihydro-4H-pyrazolo[1,5-a]pyrazin-5-yl]prop-2-en-1-one] | 100 to 1000 nM | A (percent of modification of PIK3CA protein ≥75%) | – | – | –
